# Experimental data published in patent US20250186452A1, “NOVEL USE OF QUINOLINE COMPOUND” (TARAPEUTICS SCIENCE INC., priority 2022, published 2025).
# How the values were obtained:
# TEL-CSF1R-BaF3 = molecular target: T1, TEL-CSF1R-BaF3 (Homo sapiens, UniProt P07333); experiment: Proliferation of TEL-CSF1R-BaF3 cells (CCK-8, 72 hours); type: cell-based; conditions: 72 hours incubation, CCK-8
# T1 construct: expressed in transfected cells; host or cells: mouse BaF3 cells (ATCC), retroviral transduction with MSCV-Puro vector, IL-3 withdrawn; the other entry of the earlier key: ETV6 (P41212, Transcription factor ETV6)
# T1 sequence (P07333 582-910 limits assumed): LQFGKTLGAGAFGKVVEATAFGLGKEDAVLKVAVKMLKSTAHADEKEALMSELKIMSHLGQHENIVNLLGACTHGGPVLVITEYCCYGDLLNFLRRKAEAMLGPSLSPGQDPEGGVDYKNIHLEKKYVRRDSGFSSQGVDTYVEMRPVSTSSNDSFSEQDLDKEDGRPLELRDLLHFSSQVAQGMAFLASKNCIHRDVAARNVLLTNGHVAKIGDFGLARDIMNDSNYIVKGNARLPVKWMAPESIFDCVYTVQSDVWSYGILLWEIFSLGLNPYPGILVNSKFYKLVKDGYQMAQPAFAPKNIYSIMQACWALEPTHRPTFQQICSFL
# Procedure: (§1) The incubated cells were detected by CCK-8 (purchased from MedChem Express, China) cell viability detection kit (CCK-8 can be reduced by dehydrogenases in living cells to a highly water-soluble yellow formazan product, and the amount of the generated formazan product is proportional to the number of living cells). The number of living cells was quantified by a microplate reader, and the GI50 for each compound was calculated (the results are shown in Table 2).
# The construction method of the TEL-CSF1R-BaF3 cell line (a cell line stably expressing CSF1R kinase) was as follows: the sequence of human CSF1R kinase region was amplified by PCR and inserted into the MSCV-Puro vector (Clontech) with an N-terminal TEL fragment, and stably transferred into mouse BaF3 cells (purchased from ATCC, USA) by a retroviral method, and IL-3 growth factor was removed, finally a cell line dependent on CSF1R transferred protein was obtained.
# M-NSF-60 = experiment: Proliferation of M-NSF-60 cells with M-CSF (CCK-8, 72 hours); type: cell-based, mouse; conditions: Mus musculus; M-CSF 50 ng/ml in medium, 72 hours incubation, CCK-8; read-out: M-NSF-60 (GI50/μM)
# Procedure: as §1
# MC38 cells = experiment: In vivo efficacy in MC38 cell tumor transplantation mouse model; conditions: 50 mg/kg oral once a day
# Procedure: (§2) In this example, the experimental effects of Compound 2 and the control compound PLX3397 (purchased from MedChem Express, China) in MC38 and 4T1 mouse models were tested respectively.
# (§3) The experimental procedure was as follows: • (1) C57BL/6J male mice for use as MC38 transplanted tumor model and Balb/c male mice for use as 4T1 transplanted tumor model, which were 6 weeks old, were purchased from GemPharmatech Co., Ltd, Jiangsu. All the above mice were raised in an SPF laboratory, and the drinking water and padding had been sterilized by high pressure sterilization. All operations related to mice were performed under sterile conditions. • (2) On day 0, approximately 1×10^6 MC38 cells (purchased from ATCC) were injected subcutaneously into the left back of each of the C57BL/6J mice, and approximately 1×10^6 4T1 cells (purchased from ATCC) were injected subcutaneously into the left back of each of the Balb/c mice. • (3) For the MC38 mouse model, starting from the 6th day, the corresponding mice were orally administered with methylcellulose (HKI) (purchased from China National Pharmaceutical Group Corporation) solvent once a day (5 mice); Compound 2 at a dose of 50 mg/kg mouse weight once a day (5 mice); PLX3397 at a dose of 50 mg/kg mouse weight once a day (5 mice). For the 4T1 mouse model, starting from the 6th day, the corresponding mice were orally administered with 10% HS-15 (purchased from BASF, Germany) solvent (5 mice); Compound 2 at a dose of 50 mg/kg mouse weight once a day (5 mice); PLX3397 at a dose of 50 mg/kg mouse weight once a day (5 mice). • (4) Starting from the 6th day, the length/width of the subcutaneous tumor was measured with a vernier caliper every day, and the weight of the mice was recorded every day to determine the effects of Compound 2 and control compound PLX3397 on the weight of mice in different model mice. The results are shown in FIGS. 3 and 6. • (5) The growth trends of subcutaneous tumors in mice of different models were statistically analyzed. The tumor volume was calculated using the following method: length×width×width/2 mm^3. The results are shown in FIGS. 4 and 7. • (6) Isolation of tumor-infiltrating lymphocytes: Tumor tissue was first minced (tissue block less than 1 mm^3) with a surgical blade, resuspended in 6 ml of digestion solution (collagenase IV and 0.005% DNaseI enzyme, both purchased from Sigma, USA), and the mixture was transferred to a 15-ml centrifuge tube. The centrifuge tube was then placed in a shaker at 37° C. and digested with shaking at 220 r/min for 2 hours. The cells were sieved through a 200-mesh sieve and collected in a 50-ml centrifuge tube, and centrifuged at 1500 rpm for 10 minutes. The supernatant was then discarded, and 10 ml of DMEM medium (10% FBS) (purchased from GIBCO, USA) was added to the tube to terminate the digestion. The tube was placed in a centrifuge, and centrifuged at 1500 rpm for another 10 minutes. The supernatant was discarded. At the same time, Percoll separation solution (purchased from Millipore, USA) was prepared, and 90% Percoll separation working solution was prepared using 10×PBS. To a 15 ml centrifuge tube, 3-4 ml of 70% Percoll separation solution was added. The cells were resuspended in 4 ml of 40% Percoll separation solution, and the cell mixture was added to the 70% Percoll separation solution. The centrifuge tube was placed in a centrifuge and subjected to density gradient centrifugation at 25° C., 1260 g, for 30 minutes (speed up 5, speed down 0). After the centrifugation, the centrifuge tube was placed on a centrifuge tube rack, the middle leukocyte layer was aspirated with a pipette, and added to 10 ml of PBS, they were mixed well and placed in a centrifuge, and centrifuged at 1500 rpm. The cell supernatant was discarded after 10 min and the cells were resuspended in 5 ml of PBS, centrifuged at 1500 rpm for another 10 min, and the washing process was repeated once. The cells obtained were leukocytes in the tumor tissue. […]
# 4T1 cells = experiment: In vivo efficacy in 4T1 cell tumor transplantation mouse model; conditions: 4T1 model, 50 mg/kg oral once a day
# Procedure: as §2, §3
GI50 (TEL-CSF1R-BaF3),SMILES,GI50 (M-NSF-60),toxicity (mouse body weight) (MC38 cells; FIG. 3),inhibition effect of mouse tumors (MC38 cells; FIG. 4),toxicity (mouse body weight) (4T1 cells; FIG. 6),inhibition effect of mouse tumors (4T1 cells; FIG. 7)
0.026 µM,"COc1cc2nccc(Oc3ccc(NC(=O)Cc4ccc(Cl)c(C(F)(F)F)c4)cc3Cl)c2cc1OC [Example 38, N-(3-chloro-4-((6,7-dimethoxyquinolin-4-yl)oxy)phenyl)-2-(4-chloro-3-(trifluoromethyl)phenyl)acetamide]",0.32 µM,–,–,–,–
0.022 µM,"COc1cc2nccc(Oc3ccc(NC(=O)Cc4ccc(Cl)c(C(F)(F)F)c4)cc3C#N)c2cc1OC [Example 39, N-(3-cyano-4-((6,7-dimethoxyquinolin-4-yl)oxy)phenyl)-2-(4-chloro-3-(trifluoromethyl)phenyl)acetamide]",0.61 µM,–,–,–,–
0.007 µM,"COc1cc2nccc(Oc3ccc(NC(=O)Cc4ccccc4C(F)(F)F)cc3)c2cc1OC [Example 40, N-(4-((6,7-dimethoxyquinolin-4-yl)oxy)phenyl)-2-(2-(trifluoromethyl)phenyl)acetamide]",0.091 µM,–,–,–,–
–,"FC(F)(F)c1ccc(CNc2ccc(Cc3c[nH]c4ncc(Cl)cc34)cn2)cn1 [PLX3397, reference compound]",–,no obvious toxicity,good inhibition effect of mouse tumors,no obvious toxicity,good inhibition effect of mouse tumors
